Assay results taken from US9636335B2, “Heteroaryl compounds as 5-HT4 receptor ligands” (Suven Life Sciences Ltd, priority 2011, dated 2017).
Where a name gives a salt, the structure may show the parent alone.

Assays:
[1] = Rodent pharmacokinetic study; assay type: in vivo, Male Wister rats; settings: plasma, Wistar/Male rat
Experimental: Three to five animals were housed in each cage. […] Animals were fasted over night before oral dosing (p.o) and food pellets were allowed 2 hours post dosing, whereas intravenous dosing food and water were provided as ad libitum. Three rats were dosed with compounds of formula (I) (10 mg/kg) orally and intravenously (05 mg/kg).
At each time point blood was collected through jugular vein and immediately replenish with an equivalent volume of normal saline from freely moving rats. Collected blood was transferred into a labeled eppendr off containing 10 μL of heparin as anticoagulant. Typically blood samples were collected as following time points: Pre dose, 0.08 (only i.v.), 0.25, 0.5, 1, 2, 4, 6, 8, and 24 hours post dose (n=3). Blood was centrifuged at 4000 rpm for 10 minutes. Plasma was prepared and stored frozen at −20° C. until analysis.
Pharmacokinetic parameters Cmax, Tmax, AUCt, T1/2 and Bioavailability were calculated by non-compartmental model using standard non-compartmental model by using WinNonLin 5.0.1 or Phoenix WinNonlin 6.2 version Software package.

[2] = target: recombinant human 5-HT4 receptor (Homo sapiens (Human), UniProt Q13639); assay: Determination of EC50 values for 5-HT4 receptor (CHO cells, pCRE-Luc reporter); assay type: cell-based; settings: CHO cells expressing human 5-HT4 receptor, luciferase activity, 4 hours incubation
recombinant human 5-HT4 receptor, sequence (Q13639 whole entry): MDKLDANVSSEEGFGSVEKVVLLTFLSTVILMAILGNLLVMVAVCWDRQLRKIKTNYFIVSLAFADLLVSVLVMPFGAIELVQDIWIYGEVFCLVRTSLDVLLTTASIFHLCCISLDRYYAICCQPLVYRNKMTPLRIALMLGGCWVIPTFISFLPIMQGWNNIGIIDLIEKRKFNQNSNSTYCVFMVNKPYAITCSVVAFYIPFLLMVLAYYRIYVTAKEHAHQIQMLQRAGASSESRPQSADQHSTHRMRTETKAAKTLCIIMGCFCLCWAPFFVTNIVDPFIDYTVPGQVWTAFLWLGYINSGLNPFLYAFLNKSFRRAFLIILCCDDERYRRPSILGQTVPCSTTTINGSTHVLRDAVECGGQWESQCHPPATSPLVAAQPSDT
Experimental: A stable CHO cell line expressing recombinant human 5-HT4 receptor and pCRE-Luc reporter system was used for cell-based assay. The assay offers a non-radioactive based approach to determine binding of a compound to GPCRs. In this specific assay, the level of intracellular cyclic AMP which is modulated by activation or inhibition of the receptor is measured. The recombinant cells harbor luciferase reporter gene under the control of cAMP response element.
The above cells were grown in 96 well clear bottom white plates in Hams F12 medium containing 10% fetal bovine serum (FBS). Prior to the addition of compounds or standard agonist, cells were serum starved overnight. Increasing concentrations of test compounds were added in OptiMEM medium to the cells. The incubation was continued at 37° C. in CO2 incubator for 4 hours. Medium was removed and cells were washed with phosphate buffered saline. The cells were lysed and luciferase activity was measured in a Luminometer. Luminescence units were plotted against the compound concentrations using Graphpad software.

SMILES	EC50 [2] [nM]	other results
COCCCN1CCC(c2nnc(-c3nn(C(C)C)c4ccccc34)o2)CC1.O=C(O)C(=O)O [Example 3, 1-isopropyl-3-{5-[1-(3-methoxypropyl)piperidin-4-yl]-[1,3,4]oxadiazol-2-yl}-1H-indazole oxalate salt]		Tmax ([1]; 5 mg/kg, intravenous (bolus)): 4.8 min; Tmax ([1]; 10 mg/kg, oral (gavage)): 25.2 ± 7.2 min
CCOC(=O)N1CCC(N2CCC(c3nnc(-c4cc(Cl)c(N)c5c4OCCO5)o3)CC2)CC1 [Example 6, 4-[5-(8-amino-7-chloro-2,3-dihydrobenzo[1,4]dioxin-5-yl)-[1,3,4]oxadiazol-2-yl]-[1,4′]bipiperidinyl-1′-carboxylic acid ethyl ester oxalate salt]	4.2	
Nc1c(Cl)cc(-c2nnc(C3CCN(C4CCOCC4)CC3)o2)c2c1CCO2 [Example 7, 5-Chloro-7-{5-[1-(tetrahydropyran-4-yl)piperidin-4-yl]-[1,3,4]oxadiazol-2-yl}-2,3-dihydro benzofuran-4-yl amine oxalate salt]	7	
Nc1c(Cl)cc(-c2nnc(C3CCN(CC4CCC4)CC3)o2)c2c1CCCO2 [Example 10, 6-Chloro-8-[5-(1-cyclobutylmethyl-piperidin-4-yl)-[1,3,4]oxadiazol-2-yl]-chroman-5-ylamine]	5.7	
Nc1c(Cl)cc(-c2nnc(C3CCN(CC4CC4)CC3)o2)c2c1CCCO2 [Example 11, 6-Chloro-8-[5-(1-cyclopropylmethyl-piperidin-4-yl)-[1,3,4]oxadiazol-2-yl]-chroman-5-ylamine]	10.2	
CC(C)N1CCC(c2nnc(-c3cc(Cl)c(N)c4c3OCCC4)o2)CC1 [Example 12, 6-Chloro-8-[5-(1-isopropyl-piperidin-4-yl)-[1,3,4]oxadiazol-2-yl]-chroman-5-ylamine]	15.3	
COCCCN1CCC(c2nnc(-c3cc(Cl)c(N)c4c3OCCC4)o2)CC1 [Example 13, 6-Chloro-8-{5-[1-(3-methoxy-propyl)-piperidin-4-yl]-[1,3,4]oxadiazol-2-yl}-chroman-5-ylamine]	20.4	
Nc1c(Cl)cc(-c2nnc(C3CCN(C4CCCC4)CC3)o2)c2c1CCCO2 [Example 17, 6-Chloro-8-[5-(1-cyclopentyl-piperidin-4-yl)-[1,3,4]oxadiazol-2-yl]-chroman-5-ylamine tartarate salt]	2.3	
Nc1c(Cl)cc(-c2nnc(CCN3CCCCC3)o2)c2c1CCCO2 [Example 18, 6-Chloro-8-[5-(2-piperidin-1-yl-ethyl)-[1,3,4]oxadiazol-2-yl]-chroman-5-ylamine]	53	
CC(C)N1CC2C(C1)C2c1nnc(-c2cc(Cl)c(N)c3c2OCCC3)o1 (stereo not drawn) [Example 22, 6-Chloro-8-[5-(3-isopropyl-3-aza-bicyclo[3.1.0]hex-6-yl)-[1,3,4]oxadiazol-2-yl]-chroman-5-ylamine oxalate salt]	48	
Nc1c(Cl)cc(-c2nnc(C3C4CN(CC5CCC5)CC43)o2)c2c1CCCO2 (stereo not drawn) [Example 23, 6-Chloro-8-[5-(3-cyclobutylmethyl-3-aza-bicyclo[3.1.0]hex-6-yl)-[1,3,4]oxadiazol-2-yl]-chroman-5-ylamine oxalate salt]	20	
Nc1c(Cl)cc(-c2nnc(C3C4CN(CC5CC5)CC43)o2)c2c1CCCO2 (stereo not drawn) [Example 24, 6-Chloro-8-[5-(3-cyclopropylmethyl-3-aza-bicyclo[3.1.0]hex-6-yl)-[1,3,4]oxadiazol-2-yl]-chroman-5-ylamine]	25	
Nc1c(Cl)cc(-c2nnc(C3CCN(C4CC4)CC3)o2)c2c1CCO2 [Example 27, 5-Chloro-7-[5-(1-cyclopropyl-piperidin-4-yl)-[1,3,4]oxadiazol-2-yl]-2,3-dihydro-benzofuran-4-ylamine oxalate salt]	60	
Nc1c(Cl)cc(-c2nnc(C3CCN(C4CCC4)CC3)o2)c2c1CCO2 [Example 28, 5-Chloro-7-[5-(1-cyclobutyl-piperidin-4-yl)-[1,3,4]oxadiazol-2-yl]-2,3-dihydro-benzofuran-4-ylamine oxalate salt]	10	
Nc1c(Cl)cc(-c2nnc(C3CCN(C4CC4)CC3)o2)c2c1OCCO2 [Example 29, 6-Chloro-8-[5-(1-cyclopropyl-piperidin-4-yl)-[1,3,4]oxadiazol-2-yl]-2,3-dihydro-benzo[1,4]dioxin-5-ylamine oxalate salt]	21.5	
Nc1c(Cl)cc(-c2nnc(C3CCN(C4CCOCC4)CC3)o2)c2c1OCCO2 [Example 30, 6-Chloro-8-{5-[1-(tetrahydro-pyran-4-yl)-piperidin-4-yl]-[1,3,4]oxadiazol-2-yl}-2,3-dihydro-benzo[1,4]dioxin-5-ylamine oxalate salt]	7.3	
COCCCN1CCC(c2nnc(-c3cc(Cl)c(N)c4c3OCCO4)o2)CC1 [Example 31, 6-Chloro-8-{5-[1-(3-methoxy-propyl)-piperidin-4-yl]-[1,3,4]oxadiazol-2-yl}-2,3-dihydro-benzo[1,4]dioxin-5-ylamine oxalate salt]	16.9	
Nc1c(Cl)cc(-c2nnc(C3CCN(CC4CCOCC4)CC3)o2)c2c1CCO2 [Example 33, 5-Chloro-7-{5-[1-(tetrahydro-pyran-4-ylmethyl)-piperidin-4-yl]-[1,3,4]oxadiazol-2-yl}-2,3-dihydro-benzofuran-4-ylamine oxalate]	21	
CCOC(=O)N1CCC(N2CCC(c3nnc(-c4cc(Cl)c(N)c5c4OCC5)o3)CC2)CC1 [Example 34, 4-[5-(4-Amino-5-chloro-2,3-dihydro-benzofuran-7-yl)-[1,3,4]oxadiazol-2-yl]-[1,4′]bipiperidinyl-1′-carboxylic acid ethyl ester oxalate]	5	
CC(C)n1nc(-c2nnc(C3CCN(CC4CC4)CC3)o2)c2ccccc21 [Example 39, 3-[5-(1-Cyclopropylmethyl-piperidin-4-yl)-[1,3,4]oxadiazol-2-yl]-1-isopropyl-1H-indazole]		AUC(0-t) ([1]; 5 mg/kg, intravenous (bolus)): 1060 ± 163 ng·h/mL; Tmax ([1]; 5 mg/kg, intravenous (bolus)): 4.8 min; half-life ([1]; 5 mg/kg, intravenous (bolus)): 99 ± 28.2 min; AUC(0-t) ([1]; 10 mg/kg, oral (gavage)): 394 ± 174 ng·h/mL; Tmax ([1]; 10 mg/kg, oral (gavage)): 25.2 ± 7.2 min; half-life ([1]; 10 mg/kg, oral (gavage)): 82.8 ± 4.2 min
CC(C)n1nc(-c2nnc(CCN3CCCCC3)o2)c2ccccc21 [Example 49, 1-Isopropyl-3-[5-(2-piperidin-1-yl-ethyl)-[1,3,4]oxadiazol-2-yl]-1H-indazole oxalate]	181	
